Patent US10912841B2, “Antibody-drug-conjugate and its use for the treatment of cancer” (PIERRE FABRE MEDICAMENT, priority 2014, dated 2021)
Where a SMILES comes first, the peptide text is derived from it. [ ]: non-standard residue; d: D form. The star is where a group is joined. Dolaproine = CO[C@@H]([C@@H]1CCCN1)[C@@H](C)C(=O)O; Dil = CC[C@H](C)[C@H](NC)[C@@H](CC(=O)O)OC; X2 = CC(C)[C@@H](C(=O)*)N(C)CCc1ccc(O)cc1

Tests used:
A549 cells = test: ATPLITE antiproliferative assay, A549; assay type: cell-based; conditions: Homo sapiens, 72 h drug treatment
Description: (§1) A549 (Non Small Cell Lung Cancer—ATCC® CCL-185™) and MDA-MB-231 (breast adenocarcinoma—ATCC® HTB-26m) cells were cultured in Minimum Essential Medium Eagle (MEM) with 5% fetal calf serum (FCS) and Dulbecco's modified Eagle Medium (DMEM) with 10% FCS respectively. MCF7 (breast ductal carcinoma—ATCC® HTB-22m) and SN-12C (kidney carcinoma—ATCC) cells were maintained in RPMI1640 medium (without phenol red for MCF7 cells) containing 10% FCS. All the media were supplemented with fungizone (1.25 μg/mL) and penicillin-streptomycin (100 U/100 μg/mL). Cells were cultured under standard conditions in an incubator at 37° C., 5% CO2 and 95% atmospheric humidity.
(§2) Selected drugs were investigated for their antiproliferative activity using an ATPLITE® proliferation assay (Perkin Elmer, Villebon sur Yvette, France) on a comprehensive panel of 4 cell lines. […] On day 4, cell viability was evaluated by dosing the ATP released by viable cells. The number of viable cells was analyzed in comparison with the number of solvent treated cells. The EC50 values were determined with curve fitting analysis (non linear regression model with a sigmoidal dose response, variable hill slope coefficient), performed with the algorithm provided by the […]® Software ([…]® Software Inc., CA, USA).

MDA-MB-231 cells = test: ATPLITE antiproliferative assay, MDA-MB-231; assay type: cell-based; conditions: Homo sapiens, 72 h drug treatment
Description: as §1, §2

Q: CC[C@H](C)[C@@H]([C@@H](CC(=O)N1CCC[C@H]1[C@H](OC)[C@@H](C)C(=O)N[C@@H](Cc1ccccc1)C(=O)OC)OC)N(C)C(=O)[C@@H](NC(=O)[C@H](C(C)C)N(C)CCc1ccc(O)cc1)C(C)C [Compound 27, methyl (S)-2-((2R,3R)-3-((S)-1-((3R,4S,5S)-4-((S)-2-((S)-2-((4-hydroxyphenethyl)(methyl)amino)-3-methylbutanamido)-N,3-dimethylbutanamido)-3-methoxy-5-methylheptanoyl)pyrrolidin-2-yl)-3-methoxy-2-methylpropanamido)-3-phenylpropanoate, trifluoroacetic acid] (X2-V[Dil][Dolaproine]F-OMe) was tested. Which EC50 (A549 cells) did it give?
A: The EC50 was 0.086 nM.

Q: And the EC50 (MDA-MB-231 cells)?
A: Its EC50 is 0.12 nM.
